Laboratory results as given in patent US20230210999A1, “TARGETED PROTEASE DEGRADATION (TED) PLATFORM” (EUBULUS BIOTHERAPEUTICS INC., priority 2020, published 2023).
Read-outs that look alike come from different tables or passages of the source.

Columns and labels:
Type in all cases: cell-based, human
[1] = tested on: MV4;11 cells; assay: Cell proliferation experiment (Alamar blue, 72 h), MV4;11; settings: read-out: Inhibitory activity IC50 on MV4;11
Summary of the method: (§1)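 Alamar blue fluorescence after 72 h of compound exposure; IC50 from 4-parameter fit (Min, Max, Slope). Cells passaged ≥2 times, log-phase, 96-well, duplicate wells, 5-fold serial dilutions.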

[2] = tested on: Daudi cells; assay: Cell proliferation experiment, Daudi; settings: Daudi cells, read-out: Inhibitory activity IC50 on Daudi
Summary of the method: as §1

[3] = tested on: NCIH82 cells; assay: Cell proliferation experiment, NCI-H82; settings: read-out: Inhibitory activity IC50 on NCI-H82
Summary of the method: as §1

[4] = tested on: MDA-MB-231 cells; assay: Cell proliferation experiment, MDA-MB-231; settings: read-out: Inhibitory activity IC50 on MDA-MB-231
Summary of the method: as §1

[5] = tested on: PC-3; assay: Cell proliferation experiment, PC-3; settings: read-out: Inhibitory activity IC50 on PC-3
Summary of the method: as §1

[6] = Homo sapiens, MV4-11, MV4;11 cells
[7] = Homo sapiens, NCI-H82, NCI-H82 cells
[8] = Homo sapiens, MDA-MB-231, MDA-MB-231 cells

SMILES	IC50 ([1]; MV4;11 cells)	IC50 [2]	IC50 ([3]; NCI-H82 cells)	IC50 ([4]; MDA-MB-231 cells)	IC50 ([5]; PC-3 cells)	IC50 [1, 6]	IC50 ([2]; Homo sapiens, Daudi)	IC50 [3, 7]	IC50 [4, 8]	IC50 ([5]; Homo sapiens, PC-3, PC-3 cells)
CNC(=O)c1ccccc1Nc1nc(Nc2ccc(N3CCN(C(=O)N[C@H]4CC[C@@H](NCCOCCC#Cc5ccc6c(c5)CN(C5CCC(=O)NC5=O)C6=O)CC4)CC3)cc2)ncc1Cl (stereo partly drawn) [UB-181115]	< 0.01 µM	0.01 to 0.1 µM	0.01 to 0.1 µM	0.1 to 1 µM	0.01 to 0.1 µM	–	–	–	–	–
CNC(=O)c1ccccc1Nc1nc(Nc2ccc(N3CCN(C(=O)N[C@H]4CC[C@@H](NCCC#Cc5cccc6c5CN(C5CCC(=O)NC5=O)C6=O)CC4)CC3)nc2)ncc1Cl (stereo partly drawn) [UB-181173]	–	–	–	–	–	0.01 to 0.1 µM	> 1 µM	> 1 µM	> 1 µM	0.01 to 0.1 µM
CNC(=O)c1ccccc1Nc1nc(Nc2ccc(N3CCN(C(=O)N[C@H]4CC[C@@H](NCCC#Cc5cccc6c5CN(C5CCC(=O)NC5=O)C6=O)CC4)CC3)cc2)ncc1Cl (stereo partly drawn) [UB-181104]	–	–	–	–	–	< 0.01 µM	0.01 to 0.1 µM	0.01 to 0.1 µM	0.1 to 1 µM	0.01 to 0.1 µM
CNC(=O)c1ccccc1Nc1nc(Nc2ccc(N3CCN(C(=O)N[C@H]4CC[C@@H](NCCCCOCC(=O)Nc5cccc6c5CN(C5CCC(=O)NC5=O)C6=O)CC4)CC3)cc2)ncc1Cl (stereo partly drawn) [UB-181102]	–	–	–	–	–	0.01 to 0.1 µM	0.1 to 1 µM	0.1 to 1 µM	> 1 µM	> 1 µM
CNC(=O)c1ccccc1Nc1nc(Nc2ccc(N3CCN(C(=O)N[C@H]4CC[C@@H](NCCC#Cc5ccc6c(c5)CN(C5CCC(=O)NC5=O)C6=O)CC4)CC3)cn2)ncc1Cl (stereo partly drawn) [UB-181188]	–	–	–	–	–	0.01 to 0.1 µM	0.01 to 0.1 µM	0.01 to 0.1 µM	> 1 µM	0.01 to 0.1 µM
CNC(=O)c1ccccc1Nc1nc(Nc2ccc(N3CCN(C(=O)NC4CCC(N[C@H]5CC[C@@H](OCC#Cc6ccc7c(c6)CN(C6CCC(=O)NC6=O)C7=O)CC5)CC4)CC3)cc2)ncc1Cl (stereo partly drawn) [UB-181127]	–	–	–	–	–	< 0.01 µM	0.01 to 0.1 µM	0.01 to 0.1 µM	0.01 to 0.1 µM	0.01 to 0.1 µM
CNC(=O)c1ccccc1Nc1nc(Nc2ccc(N3CCN(C(=O)N[C@H]4CC[C@@H](NCCOCCC#Cc5cccc6c5CN(C5CCC(=O)NC5=O)C6=O)CC4)CC3)nc2)ncc1Cl (stereo partly drawn) [UB-181141]	–	–	–	–	–	< 0.01 µM	0.1 to 1 µM	0.1 to 1 µM	0.1 to 1 µM	0.1 to 1 µM
CNC(=O)c1ccccc1Nc1nc(Nc2ccc(N3CCN(C(=O)N[C@H]4CC[C@H](NCCC#Cc5ccc6c(c5)CN(C5CCC(=O)NC5=O)C6=O)CC4)CC3)nc2)ncc1Cl (stereo partly drawn) [UB-181174]	–	–	–	–	–	0.01 to 0.1 µM	0.01 to 0.1 µM	> 1 µM	> 1 µM	0.01 to 0.1 µM
CNC(=O)c1ccccc1Nc1nc(Nc2ccc(N3CCN(C(=O)N[C@H]4CC[C@@H](NCCOCCC#Cc5ccc6c(c5)CN(C5CCC(=O)NC5=O)C6=O)CC4)CC3)cc2)ncc1Cl (stereo partly drawn) [UB-181080]	–	–	0.1 to 1 µM	–	–	< 0.01 µM	0.01 to 0.1 µM	–	0.1 to 1 µM	0.01 to 0.1 µM
CNC(=O)c1ccccc1Nc1nc(Nc2ccc(N3CCN(C(=O)N[C@H]4CC[C@@H](N[C@H]5C[C@H](C#Cc6ccc7c(c6)CN(C6CCC(=O)NC6=O)C7=O)C5)CC4)CC3)cc2)ncc1Cl (stereo partly drawn) [UB-181181]	–	–	–	–	–	0.01 to 0.1 µM	> 1 µM	0.1 to 1 µM	> 1 µM	0.01 to 0.1 µM
NC(=O)c1ccccc1Nc1nc(Nc2ccc(C3CCN(C(=O)N[C@H]4CC[C@@H](N[C@H]5C[C@H](C#Cc6ccc7c(c6)CN(C6CCC(=O)NC6=O)C7=O)C5)CC4)CC3)cc2)ncc1Cl (stereo partly drawn) [UB-181198]	–	–	–	–	–	< 0.01 µM	0.01 to 0.1 µM	0.01 to 0.1 µM	0.01 to 0.1 µM	0.01 to 0.1 µM
CNC(=O)c1ccccc1Nc1nc(Nc2ccc(N3CCN(C(=O)N[C@H]4CC[C@@H](NCCC#Cc5ccc6c(c5)CN(C5CCC(=O)NC5=O)C6=O)CC4)CC3)nc2)ncc1Cl (stereo partly drawn) [UB-181169]	–	–	–	–	–	0.01 to 0.1 µM	0.1 to 1 µM	0.1 to 1 µM	> 1 µM	0.01 to 0.1 µM
CNC(=O)c1ccccc1Nc1nc(Nc2ccc(N3CCN(C(=O)N[C@H]4CC[C@@H](N(C)CCC#Cc5ccc6c(c5)CN(C5CCC(=O)NC5=O)C6=O)CC4)CC3)cc2)ncc1Cl (stereo partly drawn) [UB-181185]	–	–	–	–	–	< 0.01 µM	0.01 to 0.1 µM	0.01 to 0.1 µM	0.01 to 0.1 µM	0.01 to 0.1 µM
CNC(=O)c1ccccc1Nc1nc(Nc2ccc(N3CCN(C(=O)NCCCCOCCCCNCC(=O)Nc4cccc5c4CN(C4CCC(=O)NC4=O)C5=O)CC3)cc2)ncc1Cl (stereo not drawn) [UB-181048]	–	–	–	–	–	< 0.01 µM	0.01 to 0.1 µM	0.1 to 1 µM	> 1 µM	> 1 µM
NC(=O)c1ccccc1Nc1nc(Nc2ccc(C3CCN(C(=O)N[C@H]4CC[C@@H](NCCC#Cc5ccc6c(c5)CN(C5CCC(=O)NC5=O)C6=O)CC4)CC3)cc2)ncc1Cl (stereo partly drawn) [UB-181182]	–	–	–	–	–	< 0.01 µM	0.1 to 1 µM	0.01 to 0.1 µM	0.1 to 1 µM	0.1 to 1 µM
CNC(=O)c1ccccc1Nc1nc(Nc2ccc(N3CCN(C(=O)NC4CCC(NC5CCC(OCC#Cc6ccc7c(c6)CN(C6CCC(=O)NC6=O)C7=O)CC5)CC4)CC3)cc2)ncc1Cl (stereo not drawn) [UB-181131]	–	–	–	–	–	0.01 to 0.1 µM	0.1 to 1 µM	0.01 to 0.1 µM	> 1 µM	> 1 µM
CNC(=O)c1ccccc1Nc1nc(Nc2ccc(N3CCN(C(=O)NCCNCCC(=O)Nc4ccc5c(c4)CN(C4CCC(=O)NC4=O)C5=O)CC3)cc2)ncc1Cl (stereo not drawn) [UB-181054]	–	–	–	–	–	< 0.01 µM	0.01 to 0.1 µM	0.1 to 1 µM	> 1 µM	> 1 µM
NC(=O)c1ccccc1Nc1nc(Nc2ccc(N3CCN(C(=O)N[C@H]4CC[C@@H](NCCC#Cc5ccc6c(c5)CN(C5CCC(=O)NC5=O)C6=O)CC4)CC3)cc2)ncc1Cl (stereo partly drawn) [UB-181189]	–	–	–	–	–	< 0.01 µM	< 0.01 µM	0.01 to 0.1 µM	0.01 to 0.1 µM	< 0.01 µM
CNC(=O)c1ccccc1Nc1nc(Nc2ccc(N3CCN(C(=O)N[C@H]4CC[C@@H](NCCOCCC#Cc5cccc6c5CN(C5CCC(=O)NC5=O)C6=O)CC4)CC3)cc2)ncc1Cl (stereo partly drawn) [UB-181121]	< 0.01 µM	0.1 to 1 µM	0.1 to 1 µM	0.1 to 1 µM	0.1 to 1 µM	–	–	–	–	–
CNC(=O)c1ccccc1Nc1nc(Nc2ccc(C3CCN(C(=O)N[C@H]4CC[C@H](NCCC#Cc5cccc6c5CN(C5CCC(=O)NC5=O)C6=O)CC4)CC3)cc2)ncc1Cl (stereo partly drawn) [UB-181138]	–	–	–	–	–	< 0.01 µM	0.1 to 1 µM	0.01 to 0.1 µM	0.1 to 1 µM	0.01 to 0.1 µM
CNC(=O)c1ccccc1Nc1nc(Nc2ccc(N3CCC(C(=O)N[C@H]4CC[C@@H](NCCC#Cc5ccc6c(c5)CN(C5CCC(=O)NC5=O)C6=O)CC4)CC3)cc2)ncc1Cl (stereo partly drawn) [UB-181184]	–	–	–	–	–	< 0.01 µM	0.01 to 0.1 µM	0.01 to 0.1 µM	0.1 to 1 µM	0.01 to 0.1 µM
CNC(=O)c1ccccc1Nc1nc(Nc2ccc(C3CCN(C(=O)N[C@H]4CC[C@@H](NCCOCCC#Cc5ccc6c(c5)CN(C5CCC(=O)NC5=O)C6=O)CC4)CC3)cc2)ncc1Cl (stereo partly drawn) [UB-181122]	–	–	–	–	–	< 0.01 µM	0.1 to 1 µM	0.1 to 1 µM	0.1 to 1 µM	0.1 to 1 µM
NC(=O)c1ccccc1Nc1nc(Nc2ccc(C3CCN(C(=O)N[C@H]4CC[C@@H](NCC(O)CC#Cc5ccc6c(c5)CN(C5CCC(=O)NC5=O)C6=O)CC4)CC3)cc2)ncc1Cl (stereo partly drawn) [UB-181194]	–	–	–	–	–	< 0.01 µM	> 1 µM	> 1 µM	> 1 µM	> 1 µM
CNC(=O)c1ccccc1Nc1nc(Nc2ccc(N3CCN(C(=O)N[C@H]4CC[C@@H](NCCCC#Cc5cccc6c5CN(C5CCC(=O)NC5=O)C6=O)CC4)CC3)cc2)ncc1Cl (stereo partly drawn) [UB-181100]	–	–	–	–	–	< 0.01 µM	0.01 to 0.1 µM	0.01 to 0.1 µM	0.1 to 1 µM	0.01 to 0.1 µM
